≈ marks a conversion by molar mass, not a printed value. Like-named read-outs stand apart in the source and are kept apart here.
Columns and labels:
M. hyopneumoniae Str. 11 = test: MIC against Mycoplasma in vitro (Friis broth with agarose); assay type: cell-based; details: Mesomycoplasma hyopneumoniae
M. pneumoniae ATCC 15492 = test: as above; assay type: cell-based; details: Mycoplasmoides pneumoniae, ATCC15492, 144 h
[1] = tested on: Strep. suis (group D) SPS11; test: MIC against veterinary bacteria in vitro (Diagnostic Sensitivity Test Agar); details: Streptococcus suis, 18 h
Experimental: (§1) The activity of the normonyl derivatives of the Examples against various veterinarily important bacteria, was assayed in vitro using two-fold serial dilutions in Diagnostic Sensitivity Test Agar inoculated with 10^4 organisms.

M. gallisepticum S6 = test: MIC against Mycoplasma in vitro (Friis broth with agarose); assay type: cell-based; details: Mycoplasmoides gallisepticum
M. hyopneumoniae LABER = test: as above; assay type: cell-based; details: Mesomycoplasma hyopneumoniae, 144 h
Bord. bronchiseptica B08 = test: MIC against veterinary bacteria in vitro (Diagnostic Sensitivity Test Agar); details: Bordetella bronchiseptica, B08, 18 h
Experimental: as §1

M. dispar NCTC 10125 = test: MIC against Mycoplasma in vitro (Friis broth with agarose); assay type: cell-based; details: 144 h
[2] = tested on: M. bovigenitalium ATCC 14173; test: as above; assay type: cell-based; details: 144 h
M. hyorhinis ATCC 25021 = test: as above; assay type: cell-based; details: Mesomycoplasma hyorhinis, ATCC25021, 144 h; M. hyorhinis ATCC 25021; 6 days at 37° C; read-out: MIC
[3] = tested on: Staph. aureus B4 (pen. resistant); test: MIC against veterinary bacteria in vitro (Diagnostic Sensitivity Test Agar); details: Staphylococcus aureus, 18 h
Experimental: as §1

M. hyopneumoniae MS 16 = test: MIC against Mycoplasma in vitro (Friis broth with agarose); assay type: cell-based; details: Mesomycoplasma hyopneumoniae, MS16, 144 h
M. hyorhinis ATCC 23234 = test: as above; assay type: cell-based; details: Mesomycoplasma hyorhinis, ATCC23234, 144 h
Past. haemolytica PA5 = test: MIC against veterinary bacteria in vitro (Diagnostic Sensitivity Test Agar); details: Mannheimia haemolytica, PA5, 18 h
Experimental: as §1

S. typhimurium S18 = test: as above; details: Salmonella enterica, 18 h
Experimental: as §1

[4] = tested on: M. hyopneumoniae PW/C/210; test: MIC against Mycoplasma in vitro (Friis broth with agarose); assay type: cell-based; details: Mesomycoplasma hyopneumoniae, 144 h; M. hyopneumoniae PW/C/210; 6 days at 37° C; read-out: MIC
M. hyopneumoniae NB12 = test: as above; assay type: cell-based; details: Mesomycoplasma hyopneumoniae
Staph. aureus Oxford = test: MIC against veterinary bacteria in vitro (Diagnostic Sensitivity Test Agar); details: Staphylococcus aureus, 18 h
Experimental: as §1

M. hyopneumoniae HK (2) = test: MIC against Mycoplasma in vitro (Friis broth with agarose); assay type: cell-based; details: Mesomycoplasma hyopneumoniae, 144 h
Past. multocida PA1 = test: MIC against veterinary bacteria in vitro (Diagnostic Sensitivity Test Agar); details: Pasteurella multocida, PA1, 18 h
Experimental: as §1

M. hyopneumoniae JF 435 = test: MIC against Mycoplasma in vitro (Friis broth with agarose); assay type: cell-based; details: Mesomycoplasma hyopneumoniae, JF435, 144 h
Past. multocida PA2 = test: MIC against veterinary bacteria in vitro (Diagnostic Sensitivity Test Agar); details: Pasteurella multocida, PA2, 18 h
Experimental: as §1

Strep. dysgalactiae SPD1 = test: as above; details: Streptococcus dysgalactiae, SPD1, 18 h
Experimental: as §1

B. subtilis ATCC 6633 = test: as above; details: Bacillus subtilis, ATCC6633, 18 h
Experimental: as §1

[5] = tested on: Neisseria catarrhalis 1502; test: MIC against human bacteria in vitro (nutrient agar, chocolated horse blood); assay type: cell-based; details: human; Neisseria catarrhalis 1502; 18 hours at 37° C; read-out: MIC
Procedure, shortened: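 Compounds were tested in vitro by serial dilution in nutrient agar containing 5% chocolated horse blood, and the MIC was read as the lowest inhibitory concentration.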

[6] = M. pneumoniae ATCC 15492, 6 days at 37° C, read-out: MIC
[7] = 144 h, M. gallisepticum S6, 6 days at 37° C, read-out: MIC
[8] = M. hyopneumoniae LABER, 6 days at 37° C, read-out: MIC
[9] = M. dispar NCTC 10125, 6 days at 37° C, read-out: MIC
[10] = M. bovigenitalium ATCC 14173, 6 days at 37° C, read-out: MIC
[11] = M. hyopneumoniae MS 16, 6 days at 37° C, read-out: MIC
[12] = M. hyorhinis ATCC 23234, 6 days at 37° C, read-out: MIC
[13] = M. hyopneumoniae JF 435, 6 days at 37° C, read-out: MIC
[14] = 144 h, M. hyopneumoniae Str. 11, 6 days at 37° C, read-out: MIC

| SMILES | MIC (M. hyopneumoniae Str. 11; STR.11, 144 h) [µg/mL] | MIC (M. pneumoniae ATCC 15492; [6]) [µg/mL] | MIC [1] [µg/mL] | MIC (M. gallisepticum S6; [7]) [µg/mL] | MIC (M. hyopneumoniae LABER; [8]) [µg/mL] | MIC (Bord. bronchiseptica B08) [µg/mL] | MIC (M. dispar NCTC 10125; [9]) [µg/mL] | MIC [2, 10] [µg/mL] | MIC (M. hyorhinis ATCC 25021) [µg/mL] | MIC [3] [µg/mL] | MIC (M. hyopneumoniae MS 16; [11]) [µg/mL] | MIC (M. hyorhinis ATCC 23234; [12]) [µg/mL] | MIC (Past. haemolytica PA5) [µg/mL] | MIC (S. typhimurium S18) [µg/mL] | MIC [4] [µg/mL] | MIC (Staph. aureus Oxford) [µg/mL] | MIC (Past. multocida PA1) [µg/mL] | MIC (M. hyopneumoniae JF 435; [13]) [µg/mL] | MIC (Past. multocida PA2) [µg/mL] | MIC (Strep. dysgalactiae SPD1) [µg/mL] | also measured |
| --- | --- | --- | --- | --- | --- | --- | --- | --- | --- | --- | --- | --- | --- | --- | --- | --- | --- | --- | --- | --- | --- |
| CSc1ccc(-c2nnc(C=C(C)CC3OCC(CC4OC4C(C)C(C)O)C(O)C3O)o2)cc1 (stereo not drawn) [Example 3, 2-p-Methylthiophenyl-5-(1-normon-2-yl)-1,3,4-oxadiazole A] | 1 (≈ 2.04 µM) | > 10 | 80 (≈ 163 µM) | > 10 | 1 (≈ 2.04 µM) | > 80 | 0.25 (≈ 0.51 µM) | 0.5 (≈ 1.02 µM) | 0.5 (≈ 1.02 µM) | 2.5 (≈ 5.1 µM) | 0.5 (≈ 1.02 µM) | 0.5 (≈ 1.02 µM) | 20 (≈ 40.8 µM) | > 80 | 0.5 (≈ 1.02 µM) | 5 (≈ 10.2 µM) | 2.5 (≈ 5.1 µM) | 2.5 (≈ 5.1 µM) | 2.5 (≈ 5.1 µM) | 10 (≈ 20.4 µM) | MIC (M. hyopneumoniae NB12; 144 h, M. hyopneumoniae NB12, 6 days at 37° C, read-out: MIC): 1 µg/mL (≈ 2.04 µM); MIC (M. hyopneumoniae HK (2); M. hyopneumoniae HK (2), 6 days at 37° C, read-out: MIC): 1 µg/mL (≈ 2.04 µM) |
| CC(=Cc1nnc(-c2cccnc2)o1)CC1OCC(CC2OC2C(C)C(C)O)C(O)C1O (stereo not drawn) [Example 5, 2-(1-Normon-2-yl)-5-(3-pyridyl)-1,3,4-oxadiazole A] | – | > 10 | > 80 | > 10 | 1 (≈ 2.24 µM) | > 80 | 0.5 (≈ 1.12 µM) | 0.25 (≈ 0.561 µM) | 1 (≈ 2.24 µM) | 10 (≈ 22.4 µM) | 1 (≈ 2.24 µM) | 1 (≈ 2.24 µM) | – | > 80 | 1 (≈ 2.24 µM) | 20 (≈ 44.9 µM) | 1.25 (≈ 2.81 µM) | 2.5 (≈ 5.61 µM) | 1.25 (≈ 2.81 µM) | 10 (≈ 22.4 µM) | MIC (M. hyopneumoniae Str. 11; [14]): 1 µg/mL (≈ 2.24 µM); MIC (M. hyopneumoniae NB12; NB12, 144 h): 2.5 µg/mL (≈ 5.61 µM); MIC (B. subtilis ATCC 6633): 2.5 µg/mL (≈ 5.61 µM) |
| CC(=Cc1nnc(-c2cccs2)o1)CC1OCC(CC2OC2C(C)C(C)O)C(O)C1O (stereo not drawn) [Example 6, 2-(1-Normon-2-yl)-5-(2-thienyl)-1,3,4-oxadiazole A] | 2.5 (≈ 5.55 µM) | > 10 | 80 (≈ 178 µM) | > 10 | – | > 80 | 1 (≈ 2.22 µM) | 0.25 (≈ 0.555 µM) | 1 (≈ 2.22 µM) | 2.5 (≈ 5.55 µM) | – | – | 20 (≈ 44.4 µM) | > 80 | – | 10 (≈ 22.2 µM) | 2.5 (≈ 5.55 µM) | – | – | 40 (≈ 88.8 µM) | MIC (M. hyopneumoniae LABER): 2.5 µg/mL (≈ 5.55 µM); MIC (M. hyopneumoniae MS 16): 2.5 µg/mL (≈ 5.55 µM); MIC (M. hyorhinis ATCC 23234): 2.5 µg/mL (≈ 5.55 µM); MIC (M. hyopneumoniae HK (2)): 5 µg/mL (≈ 11.1 µM); MIC (M. hyopneumoniae JF 435): 5 µg/mL (≈ 11.1 µM) |
| CC(=Cc1nnc(-c2ccncc2)o1)CC1OCC(CC2OC2C(C)C(C)O)C(O)C1O (stereo not drawn) [Example 7, 2-(1-Normon-2-yl)-5-(4-pyridyl)-1,3,4-oxadiazole A] | – | – | > 80 | – | – | > 80 | – | – | 0.5 (≈ 1.12 µM) | 10 (≈ 22.4 µM) | – | 0.5 (≈ 1.12 µM) | 20 (≈ 44.9 µM) | > 80 | – | > 80 | 2.5 (≈ 5.61 µM) | 2.5 (≈ 5.61 µM) | 0.625 (≈ 1.4 µM) | 10 (≈ 22.4 µM) | MIC (M. hyopneumoniae Str. 11; [14]): 0.5 µg/mL (≈ 1.12 µM); MIC (M. pneumoniae ATCC 15492): > 10 µg/mL; MIC (M. gallisepticum S6; S6, 144 h): > 10 µg/mL; MIC (M. dispar NCTC 10125): 0.25 µg/mL (≈ 0.561 µM); MIC [2]: 0.25 µg/mL (≈ 0.561 µM); MIC [5]: 0.25 µg/mL (≈ 0.561 µM); MIC (B. subtilis ATCC 6633): 2.5 µg/mL (≈ 5.61 µM) |
